The results in this text go back to patent US20240018123A1, “COMPOUND FOR INHIBITING OR DISINTEGRATING ANDROGEN RECEPTOR, AND PHARMACEUTICAL USE THEREOF” (KOREA RESEARCH INSTITUTE OF CHEMICAL TECHNOLOGY, priority 2020, published 2024).

Where two headings read alike, the source gives them in different places.

Data set [1] has as its target T1, Androgen receptor (AR) (Homo sapiens, UniProt P10275, T878A).
T1 construct: 5.5×10^5 LNCap cells were injected into each well of a 6-well plate; endogenous in cells; host or cells: LNCaP
T1 sequence (P10275 1-920 T878A): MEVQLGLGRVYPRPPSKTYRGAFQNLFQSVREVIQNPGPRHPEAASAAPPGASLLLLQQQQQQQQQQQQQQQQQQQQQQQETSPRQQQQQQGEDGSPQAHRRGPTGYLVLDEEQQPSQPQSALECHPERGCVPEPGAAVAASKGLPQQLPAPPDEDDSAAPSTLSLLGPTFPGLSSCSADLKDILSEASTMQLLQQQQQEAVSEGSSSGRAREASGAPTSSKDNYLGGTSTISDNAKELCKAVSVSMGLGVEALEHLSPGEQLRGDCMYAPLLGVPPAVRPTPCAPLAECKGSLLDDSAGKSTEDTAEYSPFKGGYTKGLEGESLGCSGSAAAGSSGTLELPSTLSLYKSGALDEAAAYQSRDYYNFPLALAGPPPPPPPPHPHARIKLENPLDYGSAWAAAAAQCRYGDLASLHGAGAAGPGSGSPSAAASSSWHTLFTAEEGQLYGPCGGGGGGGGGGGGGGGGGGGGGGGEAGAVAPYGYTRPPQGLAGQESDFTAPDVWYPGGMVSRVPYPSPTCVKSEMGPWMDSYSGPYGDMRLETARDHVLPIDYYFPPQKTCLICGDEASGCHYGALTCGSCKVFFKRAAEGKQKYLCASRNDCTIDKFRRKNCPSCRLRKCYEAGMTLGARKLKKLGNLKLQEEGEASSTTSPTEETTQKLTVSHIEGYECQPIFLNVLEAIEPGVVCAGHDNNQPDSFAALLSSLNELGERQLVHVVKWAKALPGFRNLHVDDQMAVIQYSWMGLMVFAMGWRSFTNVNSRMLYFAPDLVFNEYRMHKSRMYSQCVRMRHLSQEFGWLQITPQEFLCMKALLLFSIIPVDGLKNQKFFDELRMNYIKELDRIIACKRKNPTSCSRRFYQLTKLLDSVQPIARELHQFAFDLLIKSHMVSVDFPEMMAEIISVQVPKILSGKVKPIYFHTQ
Put plainly: Assessment of AR proteolytic activity (Western blotting of LNCap cell lysates). The format is cell-based. As to conditions: 24 hours of treatment, Western blotting quantified with Image J; for remaining activity at 1 µM: read-out: Degradation (1 μM treated in LNCaP, % AR remaining). An outline of the steps: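 LNCap cells seeded at 5.5×10^5 per well and treated with compound for 24 hours. Lysates prepared in RIPA buffer (pH 7.5, with protease inhibitors). AR protein levels assessed by Western blot with densitometric quantification.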

The test system of data set [2] is LNCaP cells.
Data set [3] deals with VCaP cells. Put plainly: Cytotoxicity assessment (Cell-titer-glo cell viability), VCaP.
For data set [4], the system named is LNCaP cells. Briefly: Cytotoxicity assessment (Cell-titer-glo cell viability), LNCaP.
The mark [5] stands for this setting: read-out: VCaP (CC50), VCaP cells, 6 days of treatment, Cell-titer-glo, vs DMSO.
The mark [6] stands for this setting: read-out: LNCAP (CC50), LNCaP cells, 6 days of treatment, Cell-titer-glo, vs DMSO.
[7] abbreviates: Homo sapiens, VCaP, 144 h, read-out: VCaP (CC50, μM).
Setting [8] is: Homo sapiens, LNCaP, 144 h, read-out: LNCAP (CC50, μM).

Take `CC1(C)[C@H](NC(=O)c2ccc(N3CCN(CC4CCN(c5ccc6c(=O)n(C7CCC(=O)NC7=O)nnc6c5)CC4)CC3)cc2)C(C)(C)[C@H]1Oc1ccc(C#N)c(Cl)c1` (some centres unmarked) [Example 12, N-((1r,3r)-3-(3-chloro-4-cyanophenoxy)-2,2,4,4-tetramethylcyclobutyl)-4-(4-((1-(3-(2,6-dioxopiperidin-3-yl)-4-oxo-3,4-dihydrobenzo[d][1,2,3]triazin-7-yl)piperidin-4-yl)methyl)piperazin-1-yl)benzamide]: the “Degradation (1 μM treated in LNCaP, % AR remaining)” value in data set [1] is given as 7%. Further, the midpoint of cytotoxicity in data set [2], the CC50, lay at 1310 nM.

Regarding `CC1(C)C(NC(=O)c2ccc(OCCOCCOCCOCCOCCOCCCCNc3cccc4nnn(C5CCC(=O)NC5=O)c(=O)c34)cc2)C(C)(C)C1Oc1ccc(C#N)c(Cl)c1` (centres unmarked) [Example 5, N-((1r,3r)-3-(3-chloro-4-cyanophenoxy)-2,2,4,4-tetramethylcyclobutyl)-4-((19-((3-(2,6-dioxopiperidin-3-yl)-4-oxo-3,4-dihydrobenzo[d][1,2,3]triazin-5-yl)amino)-3,6,9,12,15-pentaoxanonadecyl)oxy)benzamide], the “Degradation (1 μM treated in LNCaP, % AR remaining)” value in data set [1] is given as 6%. This molecule yielded a CC50 in data set [2] of 1600 nM.

In the case of `CC1(C)C(NC(=O)c2ccc(OCCOCCOCCOCCOCCOCCCCNc3ccc4nnn(C5CCC(=O)NC5=O)c(=O)c4c3)cc2)C(C)(C)C1Oc1ccc(C#N)c(Cl)c1` (centres unmarked) [Example 17, N-((1r,3r)-3-(3-chloro-4-cyanophenoxy)-2,2,4,4-tetramethylcyclobutyl)-4-((19-((3-(2,6-dioxopiperidin-3-yl)-4-oxo-3,4-dihydrobenzo[d][1,2,3]triazin-6-yl)amino)-3,6,9,12,15-pentaoxanonadecyl)oxy)benzamide], the “Degradation (1 μM treated in LNCaP, % AR remaining)” value in data set [1] came to 6.7%. Also, the CC50 in data set [2] stood at 835 nM.

Take `CC1(C)C(NC(=O)c2ccc(OCCOCCOCCOCCOCCNc3cccc4nnn(C5CCC(=O)NC5=O)c(=O)c34)cc2)C(C)(C)C1Oc1ccc(C#N)c(Cl)c1` (centres unmarked) [Example 2, N-((1r,3r)-3-(3-chloro-4-cyanophenoxy)-2,2,4,4-tetramethylcyclobutyl)-4-((14-((3-(2,6-dioxopiperidin-3-yl)-4-oxo-3,4-dihydrobenzo[d][1,2,3]triazin-5-yl)amino)-3,6,9,12-tetraoxatetradecyl)oxy)benzamide]: in data set [1], the “Degradation (1 μM treated in LNCaP, % AR remaining)” value is reported as 100%. The same molecule returned a CC50 in data set [2] of 4930 nM.

`CC1(C)[C@H](NC(=O)c2ccc(N3CCN(C4CC5(CCN(C(=O)C6CCN(c7ccc8nnn(C9CCC(=O)NC9=O)c(=O)c8c7)CC6)CC5)C4)CC3)cc2)C(C)(C)[C@H]1Oc1ccc(C#N)c(Cl)c1` (some centres unmarked) [Example 20, N-((1r,3r)-3-(3-chloro-4-cyanophenoxy)-2,2,4,4-tetramethylcyclobutyl)-4-(4-(7-(1-(3-(2,6-dioxopiperidin-3-yl)-4-oxo-3,4-dihydrobenzo[d][1,2,3]triazin-6-yl)piperidine-4-carbonyl)-7-azaspiro[3.5]nonan-2-yl)piperazin-1-yl)benzamide]: in data set [1], the “Degradation (1 μM treated in LNCaP, % AR remaining)” value is 26%. Further, the CC50 is 0.0542 µM in data set [3] (setting [5]) and 0.178 µM in data set [4] (setting [6]).

`CC1(C)[C@H](NC(=O)c2ccc(N3CCN(CC4CCN(c5ccc6nnn(C7CCC(=O)NC7=O)c(=O)c6c5)CC4)CC3)cc2)C(C)(C)[C@H]1Oc1ccc(C#N)c(Cl)c1` (some centres unmarked) [Example 8, N-((1r,3r)-3-(3-chloro-4-cyanophenoxy)-2,2,4,4-tetramethylcyclobutyl)-4-(4-((1-(3-(2,6-dioxopiperidin-3-yl)-4-oxo-3,4-dihydrobenzo[d][1,2,3]triazin-6-yl)piperidin-4-yl)methyl)piperazin-1-yl)benzamide]: the remaining activity at 1 µM in data set [1] was 8.1%. Further, the CC50 in data set [3] (setting [7]) was 0.685 µM; in data set [4] (setting [8]), 0.163 µM.

Take “N-((1r,3r)-3-(3-chloro-4-cyanophenoxy)-2,2,4,4-tetramethylcyclobutyl)-4-(4-(2-((1-(1-(3-(2,6-dioxopiperidin-3-yl)-4-oxo-3,4-dihydrobenzo[d][1,2,3]triazin-6-yl)piperidine-4-carbonyl piperidin-4-yl)oxy)ethyl)piperazin-1-yl)benzamide [Example 30]”: the “Degradation (1 μM treated in LNCaP, % AR remaining)” value in data set [1] is given as 4%. Moreover, the figures for the CC50 in data set [3] (setting [5]) and in data set [4] (setting [6]) were 0.08 µM and 0.847 µM, respectively.

For the molecule `CC1(C)[C@H](NC(=O)c2ccc(N3CCN(CC4CCN(C(=O)C5CCN(c6ccc7nnn(C8CCC(=O)NC8=O)c(=O)c7c6)CC5)CC4)CC3)cc2)C(C)(C)[C@H]1Oc1ccc(C#N)c(Cl)c1` (some centres unmarked) [Example 10, N-((1r,3r)-3-(3-chloro-4-cyanophenoxy)-2,2,4,4-tetramethylcyclobutyl)-4-(4-((1-(1-(3-(2,6-dioxopiperidin-3-yl)-4-oxo-3,4-dihydrobenzo[d][1,2,3]triazin-6-yl)piperidine-4-carbonyl)piperidin-4-yl)methyl)piperazin-1-yl)benzamide], the “Degradation (1 μM treated in LNCaP, % AR remaining)” value in data set [1] is 12.5%. Moreover, the CC50 came to 0.257 µM in data set [3] (setting [5]) and 0.19 µM in data set [4] (setting [6]).

With `CC1(C)[C@H](NC(=O)c2ccc(N3CCN(CCC4CCN(C(=O)C5CCN(c6ccc7nnn(C8CCC(=O)NC8=O)c(=O)c7c6)CC5)CC4)CC3)cc2)C(C)(C)[C@H]1Oc1ccc(C#N)c(Cl)c1` (some centres unmarked) [Example 26, N-((1r,3r)-3-(3-chloro-4-cyanophenoxy)-2,2,4,4-tetramethylcyclobutyl)-4-(4-(2-(1-(1-(3-(2,6-dioxopiperidin-3-yl)-4-oxo-3,4-dihydrobenzo[d][1,2,3]triazin-6-yl)piperidine-4-carbonyl)piperidin-4-yl)ethyl)piperazin-1-yl)benzamide], in data set [1], the “Degradation (1 μM treated in LNCaP, % AR remaining)” value is on record as 7%. Also, the results for the CC50 in data set [3] (setting [5]) and in data set [4] (setting [6]) were 0.0516 µM and 0.361 µM, respectively.

Take “N-((1r,3r)-3-(3-chloro-4-cyanophenoxy)-2,2,4,4-tetramethylcyclobutyl)-4-(4-(2-((1-(1-(3-(2,6-dioxopiperidin-3-yl)-4-oxo-3,4-dihydrobenzo[d][1,2,3]triazin-6-yl)azetidine-3-carbonyl)piperidin-4-yl)oxy)ethyl)piperazin-1-yl)benzamide [Example 33]”: the “Degradation (1 μM treated in LNCaP, % AR remaining)” value in data set [1] amounted to 14%. Further, the CC50 in data set [3] (setting [5]) stood at 0.057 µM; in data set [4] (setting [6]) it was 0.762 µM.

On to `CC1(C)[C@H](NC(=O)c2ccc(N3CCN(C4CC5(CCN(c6ccc7nnn(C8CCC(=O)NC8=O)c(=O)c7c6)CC5)C4)CC3)cc2)C(C)(C)[C@H]1Oc1ccc(C#N)c(Cl)c1` (some centres unmarked) [Example 23, N-((1r,3r)-3-(3-chloro-4-cyanophenoxy)-2,2,4,4-tetramethylcyclobutyl)-4-(4-(7-(3-(2,6-dioxopiperidin-3-yl)-4-oxo-3,4-dihydrobenzo[d][1,2,3]triazin-6-yl)-7-azaspiro[3.5]nonan-2-yl)piperazin-1-yl)benzamide], for which the “Degradation (1 μM treated in LNCaP, % AR remaining)” value in data set [1] was found to be 5%. In addition, the figures for the CC50 in data set [3] (setting [5]) and in data set [4] (setting [6]) were 0.191 µM and 0.302 µM, respectively.

Consider `CC1(C)[C@H](NC(=O)c2ccc(N3CCN(C4CC5(CCN(C(=O)CNc6ccc7nnn(C8CCC(=O)NC8=O)c(=O)c7c6)CC5)C4)CC3)cc2)C(C)(C)[C@H]1Oc1ccc(C#N)c(Cl)c1` (some centres unmarked) [Example 19, N-((1r,3r)-3-(3-chloro-4-cyanophenoxy)-2,2,4,4-tetramethylcyclobutyl)-4-(4-(7-((3-(2,6-dioxopiperidin-3-yl)-4-oxo-3,4-dihydrobenzo[d][1,2,3]triazin-6-yl)glycyl)-7-azaspiro[3.5]nonan-2-yl)piperazin-1-yl)benzamide], for which, in data set [1], the “Degradation (1 μM treated in LNCaP, % AR remaining)” value was 23%. The figures for the CC50 in data set [3] (setting [5]) and in data set [4] (setting [6]) were 0.0763 µM and 0.208 µM, respectively.

In the case of `CC1(C)[C@H](NC(=O)c2ccc(N3CCN(CCOC4CCN(C(=O)COc5ccc6nnn(C7CCC(=O)NC7=O)c(=O)c6c5)CC4)CC3)cc2)C(C)(C)[C@H]1Oc1ccc(C#N)c(Cl)c1` (some centres unmarked) [Example 32, N-((1r,3r)-3-(3-chloro-4-cyanophenoxy)-2,2,4,4-tetramethylcyclobutyl)-4-(4-(2-((1-(2-((3-(2,6-dioxopiperidin-3-yl)-4-oxo-3,4-dihydrobenzo[d][1,2,3]triazin-6-yl)oxy)acetyl)piperidin-4-yl)oxy)ethyl)piperazin-1-yl)benzamide], the remaining activity at 1 µM in data set [1] stood at 2%. Moreover, the CC50 was 0.141 µM in data set [3] (setting [7]) and 1.3 µM in data set [4] (setting [8]).
